From ChEMBL document CHEMBL4706603, “Discovery of VEGFR-2 inhibitors exerting significant anticancer activity against CD44+ and CD133+ cancer stem cells (CSCs): Reversal of TGF-β induced epithelial-mesenchymal transition (EMT) in hepatocellular carcinoma” (Eur J Med Chem, 2020) come the findings set out here.

Test [1] deals with MCF7. Briefly: Cytotoxicity against human MCF7 cells assessed as reduction in cell viability incubated for 24 hrs by MTT assay. It counts as functional, cell-based. To be noted: for IC50: MCF7, 24 h.
Test [2] relates to MDA-MB-231. The test can be described thus: Induction of apoptosis in human MDA-MB-231 cells assessed as early apoptotic cells at IC50 incubated for 72 hrs by Alexa Fluor488-annexin V/PI staining based flow cytometric analysis (Rvb= 0.6 %). It counts as functional. Background: In flow cytometry, cells or beads pass a laser one at a time.
In test [3] the test system is Chorioallantoic membrane. Briefly: Antiangiogenic activity in chicken fertilized egg chorioallantoic membrane measured upto 72 hrs by CAM assay. It counts as functional, tissue-based. To be noted: Gallus gallus, dose 0.01-2 µM, time hrs <=72.
The test system of test [4] is MDA-MB-231. Briefly: Induction of apoptosis in human MDA-MB-231 cells assessed as viable cells at IC50 incubated for 72 hrs by Alexa Fluor488-annexin V/PI staining based flow cytometric analysis (Rvb= 99.4 %). In kind it is functional.
Test [5] deals with MDA-MB-231. Briefly: Cytotoxicity against human MDA-MB-231 cells assessed as reduction in cell viability incubated for 24 hrs by MTT assay. In kind it is functional, cell-based. To be noted: for IC50: MDA-MB-231, 24 h.
The subject of test [6] is MDA-MB-231. The test can be described thus: Induction of apoptosis in human MDA-MB-231 cells assessed as necrotic cells at IC50 incubated for 72 hrs by Alexa Fluor488-annexin V/PI staining based flow cytometric analysis (Rvb= 0.0 %). In kind it is functional.
For test [7], the system named is HepG2. The test can be described thus: Cytotoxicity against human HepG2 cells assessed as reduction in cell viability incubated for 24 hrs by MTT assay. It counts as functional, cell-based. Particulars: for IC50: HepG2, 24 h.
Test [8] concerns MDA-MB-231. Briefly: Induction of apoptosis in human MDA-MB-231 cells assessed as late apoptotic cells at IC50 incubated for 72 hrs by Alexa Fluor488-annexin V/PI staining based flow cytometric analysis (Rvb= 0.0 %). It counts as functional.
The nature of test [9]: Inhibition of VEGF expression in human HUVEC assessed as mean fluorescence intensity at IC50 incubated for 48 hrs by FITC based flow cytometry analysis (reference value: 53.91+/- 0.95). It counts as functional.
The subject of test [10] is HUVEC. The test can be described thus: Induction of apoptosis in human HUVEC assessed as late apoptotic cells at IC50 incubated for 48 hrs by annexin V-FITC and PI staining based flow cytometry. It counts as functional.
Test [11] in a line: Inhibition of VEGFR2 expression in human HUVEC assessed as mean fluorescence intensity at IC50 incubated for 48 hrs by FITC based flow cytometry analysis (reference value: 49.24 +/- 0.47). It counts as functional.
The test system of test [12] is HUVEC. Briefly: Antiproliferative activity against human HUVEC assessed as reduction in cell viability incubated for 24 hrs by MTT assay. It counts as functional, cell-based. Background: Tetrazolium assays rely on reduction of a dye to a coloured formazan, in cell work by metabolically active cells.
The subject of test [13] is HUVEC. Briefly: Induction of apoptosis in human HUVEC assessed as early apoptotic cells at IC50 incubated for 48 hrs by annexin V-FITC and PI staining based flow cytometry (reference value: <1%). It counts as functional.
The nature of test [14]: Inhibition of VEGFR2 expression in human HUVEC assessed as mean fluorescence intensity at IC50 incubated for 48 hrs by fluorescence microscopic analysis (reference value: 1.448 +/- 0.01). In kind it is functional.

For orientation: IC50 means the concentration at which inhibition is half-maximal. `O=C(Nc1cccc(C(F)(F)F)c1)Nc1cccc2c(Oc3ccc([N+](=O)[O-])cc3)cccc12`: in test [1], the inhibition result was “Dose-dependent effect” and the half-inhibitory concentration (IC50) was found to be 953 nM.

Turning to `COc1ccc(NC(=O)Nc2cccc3c(Oc4ccc([N+](=O)[O-])cc4)cccc23)cc1`, the inhibition result in test [1] is “Dose-dependent effect”.

Regarding `O=C(Nc1ccccc1)Nc1cccc2c(Oc3ccc([N+](=O)[O-])cc3)cccc12`, in [1], the inhibition result is “Dose-dependent effect” and the 50% inhibitory concentration (IC50) was found to be 953 nM.

Consider `CC(=O)Nc1ccc(Oc2cccc3c(NC(=O)Nc4ccccc4)cccc23)cc1`, for which the Activity in test [2] is 46.37%; in [3], “Dose-dependent effect”; in test [4] it was 21.2%; in test [6] it was 4.5%; in [8], 27.4%. Moreover, the inhibition result in [1], in test [5] and in test [7] was “Dose-dependent effect” in each case. Also, the IC50 in test [5] was 1410 nM; in [7], 258 nM.

For `O=C(Nc1ccc(Cl)c(C(F)(F)F)c1)Nc1cccc2c(Oc3ccc([N+](=O)[O-])cc3)cccc12`, in test [1], the inhibition result is “Dose-dependent effect” and the half-maximal inhibitory concentration (IC50) came out at 953 nM.

As for `O=C(Nc1ccccc1)Nc1cccc2c(O)cccc12`, in test [1], the inhibition entry is “Dose-dependent effect”.

As for `O=C(Nc1cccc(C(F)(F)F)c1)Nc1cccc2c(O)cccc12`, in [1], the inhibition result is “Dose-dependent effect” and the IC50 was determined as 953 nM.

Regarding `CC(=O)Nc1ccc(Oc2cccc3c(NC(=O)Nc4ccc(Cl)c(C(F)(F)F)c4)cccc23)cc1`, the Activity in test [2] was 47%; in [3], “Dose-dependent effect”; in [4], 20.9%; in test [6] it was 4.6%; in test [8], 27.5%. Besides, the inhibition result in test [1], in [5] and in [7] was “Dose-dependent effect” in each case. The half-maximal inhibitory concentration (IC50) in test [5] was found to be 1410 nM; in [7], 258 nM.

On to `CNC(=O)c1cc(Oc2ccc(NC(=O)Nc3ccc(Cl)c(C(F)(F)F)c3)cc2)ccn1.Cc1ccc(S(=O)(=O)O)cc1` [SORAFENIB TOSYLATE], for which the Flu intensity in [9] amounted to 7.14; in test [11], 6.45; in test [14], 1.1. For the same compound, the Activity amounted to 25.6% in test [10] and 24.5% in [13]. Further, the IC50 in test [12] stood at 1950 nM; in [1], 1380 nM; in [5] it was 349 nM; in test [7] it was 215 nM.
